# Results as given in patent US4849405A, “Oral insulin and a method of making the same” (priority 1986, dated 1989).
# System: white laboratory rats
# Assay: Blood glucose level in rats before and three hours after administration of oral insulin preparation
# Format: in vivo
# Conditions: rat; preparation containing 5 units of bovine insulin; three hours after administration
# Protocol: Two white laboratory rats, weighing 177 and 197 grams, respectively, were used in this experiment. One rat was administered a preparation of oral insulin according to the present invention containing 5 units of insulin; a formulation of the oral insulin according to the present invention containing 10 units of bovine insulin was administered to the second rat. Blood samples were drawn from each animal before and three hours after administration of the oral insulin preparation. The results given below are expressed as the percentage of the pre-experiment blood glucose level.
# One white laboratory rat weighing 181 grams received a non-encapsulated preparation containing 5 units of free bovine insulin. This animal served as the control. After three hours, blood glucose level was 98.7% of the pre-experiment blood glucose level.
substance,measurement,value
free bovine insulin: non-encapsulated preparation containing 5 units of free bovine insulin; served as the control,blood glucose level as percentage of the pre-experiment blood glucose level,98.7%
